{"source": "patent US6376169B1", "about": "“Method for diagnosing a vascular condition” (Queens University at Kingston, priority 1998, dated 2002)", "assay_type_in_all_cases": "cell-based, human", "key": {"RTP/Drg1 protein": {"system": "RTP/Drg1 protein", "test": "Western blot of RTP/Drg1 protein in MDA-MB-231 cells", "details": "for levels of RTP/Drg1 protein: 20% oxygen, up to 72 h, 100 μM cobalt chloride, 30 mM Tiron or 100 μM DFO; for reduction in RTP/Drg1 protein levels (hypoxic up-regulation), densitometry: 1% oxygen + 30% CO, 24 h; for effect of CO on up-regulation of RTP/Drg1 protein induced by cobalt chloride, Tiron and DFO: hypoxic conditions with CO", "method": "(§1) To determine whether hypoxia regulates the expression of certain genes (e.g., PAI-1, uPAR, RTP/Drg1) via an iron-containing heme protein, cells were cultured for up to 72 h at 20% oxygen in the presence or absence of either 100 μM cobalt chloride, or 30 mM sodium 4,5-dihydroxybenzene-1,3-disulfonate (Tiron), or 100 μM desferrioxamine mesylate (DFO) (Sigma Chemical CO., St. Louis, Mo.). Further confirmation of the role of a heme protein in hypoxic responses can be achieved by culturing cells under hypoxia in the presence of carbon monoxide, which maintains the heme protein in the oxy state and thereby blocks heme protein-mediated hypoxic responses. Thus, cells were also cultured for 24 h at 37° C. under hypoxic conditions in the presence of 30% carbon monoxide.\nWestern Blot Analysis. To examine levels of RTP/Drg1 protein, cells were lysed with buffer containing 40 mM HEPES pH 7.2, 100 mM NaCl, 20% glycerol, 0.1 mM EDTA pH 8.0, 0.2% Triton X-100 (polyoxyethylene (10) isooctylphenyl ether), 1 mM DTT, and 2 mM PMSF, and centrifuged briefly at 4° C. The supernatants were collected and stored at −80° C. until use. SDS-PAGE was performed and resolved proteins were transferred to Immobilon-P membranes (Millipore Corp., Bedford, Mass.) using a semi-dry transfer cell (Bio-Rad Laboratories, Mississauga, ON). Membranes were blocked by incubation overnight at 4° C. in a PBS-buffered solution containing 0.01% Tween 20 (polyoxyethylene(20) sorbitan monolaurate) (PBS-T) and 5% casein. The blots were then incubated with polyclonal rabbit anti-Drg1 antiserum followed by incubation with a peroxidase labeled goat anti-rabbit IgG secondary antibody (Vector Lab. Inc., Burlingame, Calif.). Antigen was detected by enhanced chemiluminescence (ECL, Amersham Canada Inc., Oakville, ON) and exposure of the membrane onto Dupont Reflection NEF film (Dupont Canada, Inc., Mississauga ON)."}, "RTP/Drg1 mRNA": {"system": "RTP/Drg1 mRNA", "test": "Northern blot of RTP/Drg1 mRNA in MDA-MB-231 cells", "details": "for levels of RTP/Drg1 mRNA: 20% oxygen, up to 72 h, 100 μM cobalt chloride, 30 mM Tiron or 100 μM DFO; for effect on hypoxic up-regulation of RTP/Drg1 mRNA: 1% oxygen + 30% CO, 24 h; for effect of CO on up-regulation of RTP/Drg1 mRNA induced by cobalt chloride, Tiron and DFO: hypoxic conditions with CO", "method": "as §1\n(§2) Northern Blot Analysis. Total RNA was isolated from cell lines as described above. Aliquots of 20 μg were denatured and subjected to electrophoresis in 1% agarose-formaldehyde gels (Sambrook, J., Fritsch, E. F., and Maniatis, T. Molecular Cloning: A Laboratory Manual, Cold Spring Harbor Laboratory, Cold Spring Harbor, N.Y. (1989)). RNA was transferred to nylon membranes (Micron Separations, Inc., Westboro, Mass.). After prehybridization at 42° C. for 2-3 h in 50% formamide, 5×Denhardt's solution, 0.5% sodium dodecyl sulfate (SDS), 6×SSC (1×SSC: 0.15M NaCl, 15 mM sodium citrate, pH 7.0), and 100 μg/mL denatured salmon sperm DNA, membranes were hybridized for a period of time of overnight (˜18 h) to about 72 h at 42° C. with a cDNA probe (e.g., RTP/Drg1, PAI-1 (PAI-1 cDNA provided by Dr. Keith McCrae, Temple University School of Medicine, Philadelphia, Pa.), uPAR (Higazi A, et al., J Biol Chem 266:12752, (1995)) pre-labeled with [^32P]-dCTP using a Pharmacia Oligolabelling kit (Pharmacia Biotech, Piscataway, N.J.). The hybridization solution contained 6×SSC, 0.5% SDS, 100 μg/mL denatured salmon sperm DNA, 50% formamide and cDNA probe. After hybridization, the membranes were washed with 2×SSC and 0.5% SDS at room temperature for 15 min, 2×SSC and 0.1% SDS at room temperature for 15 min, and 0.1×SSC and 0.5% SDS for 30 min. Dupont Reflection NEF film (Dupont Canada, Inc., Mississauga, ON) was exposed to the membranes for 1-3 days at −80° C. Bands on radiographic film were analyzed using a SigmaGel gel analysis software package (Jandel Scientific Software, San Rafael, Calif.)."}, "uPAR mRNA": {"system": "uPAR mRNA", "test": "Northern blot of uPAR mRNA in HTR-8/SVneo cells", "details": "24 h", "method": "as §1, with “Thus, cells were also cultured for 24 h at 37° C. under hypoxic conditions in the presence of 30% carbon monoxide.” left out\nNorthern Blot Analysis. Total RNA was isolated from cell lines as described above. […] RNA was transferred to nylon membranes (Micron Separations, Inc., Westboro, Mass.). […] The hybridization solution contained 6×SSC, 0.5% SDS, 100 μg/mL denatured salmon sperm DNA, 50% formamide and cDNA probe. After hybridization, the membranes were washed with 2×SSC and 0.5% SDS at room temperature for 15 min, 2×SSC and 0.1% SDS at room temperature for 15 min, and 0.1×SSC and 0.5% SDS for 30 min. Dupont Reflection NEF film (Dupont Canada, Inc., Mississauga, ON) was exposed to the membranes for 1-3 days at −80° C. Bands on radiographic film were analyzed using a SigmaGel gel analysis software package (Jandel Scientific Software, San Rafael, Calif.)."}, "uPAR": {"system": "uPAR", "test": "uPAR expression by flow cytometry (mAb 3937) on HTR-8/SVneo cells", "details": "for effect on the inhibition by carbon monoxide of hypoxia-induced uPAR expression: compound in the medium, hypoxia + CO, two independent experiments", "method": "as §1\nDetermination of uPAR expression by flow cytometry. For flow cytometry, cells were released from flasks by incubation in cold PBS containing 5 mM EDTA. One million cells were then incubated for 1 h, at 4° C., with either 10 μg/ml of mAb 3937, or control mouse IgG2a, used at the same concentration. Bound antibody was detected using FITC-conjugated goat anti-mouse immunoglobulin. Cells were then fixed with 2% paraformaldehyde in PBS prior to analysis using a Coulter Elite Flow Cytometer."}, "PAI-1 mRNA": {"system": "PAI-1 mRNA", "test": "Northern blot of PAI-1 mRNA in HTR-8/SVneo cells", "details": "for increase in PAI-1 mRNA (3.0-kb and 2.3-kb transcripts): 24 hours in the presence of compound", "method": "as §1, with “Thus, cells were also cultured for 24 h at 37° C. under hypoxic conditions in the presence of 30% carbon monoxide.” left out\nas §2, with “After hybridization, the membranes were washed with 2×SSC and 0.5% SDS at room temperature for 15 min, 2×SSC and 0.1% SDS at room temperature for 15 min, and 0.1×SSC and 0.5% SDS for 30 min. Dupont Reflection NEF film (Dupont Canada, Inc., Mississauga, ON) was exposed to the membranes for 1-3 days at −80° C.” left out, “Calif.). […]” for “Calif.).”"}, "[1]": {"details": "standard (20% O2) conditions with compound"}}, "note": "“Also recorded” adds a separate entry of the source."}
{"smiles": "O=S(=O)([O-])c1cc(O)c(O)c(S(=O)(=O)[O-])c1.[Na+].[Na+]", "note": "[Tiron, sodium 4,5-dihydroxybenzene-1,3-disulfonate]", "values": [{"measurement": "levels of RTP/Drg1 protein", "setting": "RTP/Drg1 protein", "result": "time-dependent increases in RTP/Drg1 protein"}, {"measurement": "levels of RTP/Drg1 mRNA", "setting": "RTP/Drg1 mRNA", "result": "time-dependent increases in RTP/Drg1 mRNA"}, {"measurement": "increase in uPAR mRNA vs standard conditions alone", "setting": "uPAR mRNA; [1]", "result": "> 10", "unit": "fold"}, {"measurement": "effect on the inhibition by carbon monoxide of hypoxia-induced uPAR expression", "setting": "uPAR", "result": "completely prevented"}, {"measurement": "increase in PAI-1 mRNA (3.0-kb and 2.3-kb transcripts)", "setting": "PAI-1 mRNA", "result": "substantial increase"}]}
{"smiles": "[C-]#[O+]", "note": "[carbon monoxide]", "values": [{"measurement": "reduction in RTP/Drg1 protein levels (hypoxic up-regulation), densitometry", "setting": "RTP/Drg1 protein", "result": "abrogated"}, {"measurement": "reduction in RTP/Drg1 protein levels (hypoxic up-regulation), densitometry", "setting": "RTP/Drg1 protein; listed as CO", "result": 57, "unit": "%"}, {"measurement": "effect of CO on up-regulation of RTP/Drg1 protein induced by cobalt chloride, Tiron and DFO", "setting": "RTP/Drg1 protein", "result": "did not inhibit"}, {"measurement": "effect of CO on up-regulation of RTP/Drg1 protein induced by cobalt chloride, Tiron and DFO", "setting": "RTP/Drg1 protein; listed as CO", "result": "unable to inhibit"}, {"measurement": "effect on hypoxic up-regulation of RTP/Drg1 mRNA", "setting": "RTP/Drg1 mRNA", "result": "abrogated"}, {"measurement": "effect on hypoxic up-regulation of RTP/Drg1 mRNA", "setting": "RTP/Drg1 mRNA; listed as CO", "result": "substantial decrease in mRNA levels"}, {"measurement": "effect of CO on up-regulation of RTP/Drg1 mRNA induced by cobalt chloride, Tiron and DFO", "setting": "RTP/Drg1 mRNA", "result": "did not inhibit"}, {"measurement": "effect of CO on up-regulation of RTP/Drg1 mRNA induced by cobalt chloride, Tiron and DFO", "setting": "RTP/Drg1 mRNA; listed as CO", "result": "unable to inhibit"}, {"measurement": "reduction of hypoxia-mediated increase in uPAR mRNA", "setting": "uPAR mRNA; 1% O2 + 20% carbon monoxide", "result": 35, "unit": "%"}, {"measurement": "increase in uPAR mRNA vs standard conditions alone", "setting": "uPAR mRNA; hypoxic (1% O2) conditions in the presence of 20% carbon monoxide", "result": 1.8, "unit": "fold"}, {"measurement": "inhibition of hypoxia-induced expression of uPAR", "setting": "uPAR; 1% O2 + 20% carbon monoxide, 24 h, flow cytometry", "result": 56, "unit": "%"}, {"measurement": "effect on hypoxia-mediated increase in PAI-1 mRNA levels", "setting": "PAI-1 mRNA; 1% oxygen + 20% carbon monoxide, 24 hours", "result": "prevented most of the hypoxia-mediated increase in PAI-1 mRNA levels; also recorded: abolished the effect of hypoxia on PAI-1 mRNA levels"}]}
{"smiles": "[Cl][Co][Cl]", "note": "[cobalt chloride]", "values": [{"measurement": "levels of RTP/Drg1 protein", "setting": "RTP/Drg1 protein", "result": "time-dependent increases in RTP/Drg1 protein"}, {"measurement": "levels of RTP/Drg1 mRNA", "setting": "RTP/Drg1 mRNA", "result": "time-dependent increases in RTP/Drg1 mRNA"}, {"measurement": "increase in uPAR mRNA vs standard conditions alone", "setting": "uPAR mRNA; [1]", "result": 3.5, "unit": "fold"}, {"measurement": "effect on the inhibition by carbon monoxide of hypoxia-induced uPAR expression", "setting": "uPAR", "result": "completely prevented"}, {"measurement": "increase in PAI-1 mRNA (3.0-kb and 2.3-kb transcripts)", "setting": "PAI-1 mRNA", "result": "about 2 fold"}]}
